# Reference: PubChem BioAssay (NCI)
#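 Method: 48-hour compound exposure of cells in 96-well plates, five concentrations, linear interpolation of endpoints. Here, GI50 denotes the concentration required for 50% inhibition of growth. TGI: total growth inhibition.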
# How the values were obtained:
# Test in all cases: growth of human tumour cells (NCI), 48 h
# [1] = test system: HCT-15 colon
# [2] = test system: UACC-62 melanoma
# [3] = test system: HL-60(TB) leukemia
# [4] = test system: SF-539 CNS
# [5] = test system: LOX IMVI melanoma
# [6] = test system: SK-MEL-28 melanoma
# [7] = test system: T-47D breast
# [8] = test system: SR leukemia
# [9] = test system: M19-MEL melanoma
# [10] = test system: KM20L2 colon
Structure (SMILES),GI50 [1],TGI [1],GI50 [2],TGI [2],GI50 [3],GI50 [4],TGI [4],GI50 [5],TGI [5],GI50 [6],TGI [6],GI50 [7],TGI [7],GI50 [8],TGI [3],TGI [8],TGI [9],TGI [10]
COc1cc(C(=O)N/N=C/c2ccc(N(C)C)cc2)cc(OC)c1OC,0.447 µM,> 100 µM,0.417 µM,> 100 µM,0.303 µM,0.3 µM,5.25 µM,0.736 µM,> 100 µM,0.622 µM,> 100 µM,> 100 µM,> 100 µM,0.287 µM,,,,
CCCCCCCCn1ccc2cc(NC(=O)Cn3cc(CN4CCCCC4)nn3)ccc21,1.96 µM,4.11 µM,1.81 µM,3.51 µM,1.98 µM,1.81 µM,3.26 µM,1.63 µM,3.17 µM,1.75 µM,3.29 µM,1.99 µM,4.31 µM,1.67 µM,4.15 µM,> 100 µM,,
Cc1ccc2c(c1)S(=O)(=O)c1ccc3ccccc3c1N2,,> 100 µM,,> 100 µM,,,> 100 µM,,> 100 µM,,> 100 µM,,> 100 µM,,> 100 µM,69.5 µM,,
CCNC(=O)O/N=C1\CCC2[C@@H]3CC=C4C[C@@H](OC5CCCCO5)CC[C@]4(C)C3CC[C@]12C (some centres undefined),,,,3.94 µM,,,> 100 µM,,,,10.8 µM,,,,,,3.6 µM,12.4 µM
CC(C)(C)CC(N)=O,,> 100 µM,,> 100 µM,,,> 100 µM,,> 100 µM,,> 100 µM,,> 100 µM,,> 100 µM,> 100 µM,,
CC1(c2ccccc2)CC(c2cccc([N+](=O)[O-])c2)=NO1 (centres undefined),,> 100 µM,,,,,> 100 µM,,,,> 100 µM,,,,,> 100 µM,> 100 µM,
Clc1ccc(-c2cc(-c3ccccc3)nc(NCCNc3ccnc4cc(Cl)ccc34)n2)cc1,1.63 µM,3.25 µM,1.84 µM,3.37 µM,1.85 µM,1.72 µM,3.34 µM,1.89 µM,3.7 µM,1.7 µM,3.19 µM,1.54 µM,3.45 µM,1.59 µM,3.76 µM,4.56 µM,,
O=C1c2ccccc2-c2c1c1ccccc1c(=O)n2CCCNCCCCNCCCN1C(=O)c2ccccc2C2C(=O)c3ccccc3C21 (centres undefined),0.229 µM,0.853 µM,0.666 µM,3.25 µM,0.203 µM,0.0919 µM,0.759 µM,0.0278 µM,0.253 µM,1.19 µM,6.76 µM,0.643 µM,1.77 µM,< 0.005 µM,1.17 µM,0.00559 µM,,
Clc1ccc(OCc2nnc3n2N=C(c2ccc(Cl)cc2Cl)CS3)cc1,13.9 µM,37.1 µM,14 µM,31.4 µM,31.8 µM,17.4 µM,34.6 µM,16.2 µM,30.9 µM,20.6 µM,44.6 µM,38.5 µM,> 100 µM,19.4 µM,> 100 µM,52.9 µM,,
O=C1c2cccc(NCCN=Cc3ccccc3O)c2C(=O)c2c(NCCN=Cc3ccccc3O)cccc21,2.23 µM,12 µM,1.59 µM,4.86 µM,1.09 µM,1.48 µM,4.57 µM,0.534 µM,2.44 µM,1.54 µM,3.37 µM,0.684 µM,4.46 µM,0.363 µM,3.4 µM,,,
O=C(O)c1ccc(C(=O)O)c(C(=O)Nc2ccc3c(c2)C(=O)c2ccccc2-3)c1,,> 100 µM,,> 100 µM,,,> 100 µM,,> 100 µM,,> 100 µM,,> 100 µM,,> 100 µM,> 100 µM,,
COc1ccc(Nc2cc(C)nc(NCCCNc3ccnc4cc(Cl)ccc34)n2)cc1,1.03 µM,2.49 µM,1.81 µM,3.44 µM,2.37 µM,1.24 µM,2.64 µM,1.4 µM,2.85 µM,1.65 µM,3.16 µM,1.68 µM,3.69 µM,0.778 µM,5.66 µM,3.62 µM,,
COc1ccc(/C=C2\C=C(c3ccccc3)N(CCc3ccccc3)C2=O)cc1OC,11.1 µM,> 100 µM,6.01 µM,40.9 µM,11.7 µM,6.68 µM,23 µM,5.94 µM,19 µM,6.76 µM,68.1 µM,3.2 µM,28.1 µM,11.1 µM,68.6 µM,57.7 µM,,
COc1ccccc1NC(=O)c1nc2ccc([N+](=O)[O-])cc2nc1C,,> 100 µM,,> 100 µM,,,> 100 µM,,> 100 µM,,> 100 µM,,,,,,> 100 µM,> 100 µM
CCN(CC)C1CCC(Nc2c(C(C)=O)cnc3ccc(-c4ccc(O)c(Cl)c4)cc23)CC1 (centres undefined),0.301 µM,9.62 µM,3.47 µM,25.4 µM,0.15 µM,0.551 µM,7.87 µM,0.336 µM,1.58 µM,1.83 µM,16.2 µM,1.94 µM,> 100 µM,0.195 µM,1.51 µM,0.72 µM,,
NC(N)=N/N=C/c1ccc(-c2ccc(-c3cc(Cl)cc(Cl)c3)s2)cc1,1.25 µM,2.76 µM,1.85 µM,3.72 µM,1.68 µM,1.65 µM,3.1 µM,1.65 µM,3.42 µM,1.8 µM,3.51 µM,2.02 µM,4.54 µM,0.326 µM,3.59 µM,1.73 µM,,
Cn1c(=O)c(Oc2ccc(F)cc2F)cc2cnc(NC3CCS(=O)(=O)CC3)nc21,> 25 µM,> 25 µM,> 25 µM,> 25 µM,> 25 µM,> 25 µM,> 25 µM,> 25 µM,> 25 µM,> 25 µM,> 25 µM,> 19.8 µM,> 25 µM,> 25 µM,> 25 µM,> 25 µM,,
CN1C/C=C/CCOc2cccc(c2)-c2ccnc(n2)Nc2cccc(c2)C1,0.036 µM,3.18 µM,0.0328 µM,0.128 µM,0.0259 µM,0.0338 µM,0.155 µM,0.0248 µM,1.12 µM,0.0349 µM,0.188 µM,0.0437 µM,0.447 µM,0.0201 µM,0.0941 µM,,,
